The source of these data is ChEMBL document CHEMBL2396580, “Spongiacidin C, a pyrrole alkaloid from the marine sponge Stylissa massa, functions as a USP7 inhibitor” (Bioorg Med Chem Lett, 2013).

In experiment [1] the target is T1, Ubiquitin carboxyl-terminal hydrolase 7 (Homo sapiens, UniProt Q93009). Description: Inhibition of USP7 (unknown origin) using ubiquitin-EKL as substrate.
Target sequence in this assay (Q93009 whole entry): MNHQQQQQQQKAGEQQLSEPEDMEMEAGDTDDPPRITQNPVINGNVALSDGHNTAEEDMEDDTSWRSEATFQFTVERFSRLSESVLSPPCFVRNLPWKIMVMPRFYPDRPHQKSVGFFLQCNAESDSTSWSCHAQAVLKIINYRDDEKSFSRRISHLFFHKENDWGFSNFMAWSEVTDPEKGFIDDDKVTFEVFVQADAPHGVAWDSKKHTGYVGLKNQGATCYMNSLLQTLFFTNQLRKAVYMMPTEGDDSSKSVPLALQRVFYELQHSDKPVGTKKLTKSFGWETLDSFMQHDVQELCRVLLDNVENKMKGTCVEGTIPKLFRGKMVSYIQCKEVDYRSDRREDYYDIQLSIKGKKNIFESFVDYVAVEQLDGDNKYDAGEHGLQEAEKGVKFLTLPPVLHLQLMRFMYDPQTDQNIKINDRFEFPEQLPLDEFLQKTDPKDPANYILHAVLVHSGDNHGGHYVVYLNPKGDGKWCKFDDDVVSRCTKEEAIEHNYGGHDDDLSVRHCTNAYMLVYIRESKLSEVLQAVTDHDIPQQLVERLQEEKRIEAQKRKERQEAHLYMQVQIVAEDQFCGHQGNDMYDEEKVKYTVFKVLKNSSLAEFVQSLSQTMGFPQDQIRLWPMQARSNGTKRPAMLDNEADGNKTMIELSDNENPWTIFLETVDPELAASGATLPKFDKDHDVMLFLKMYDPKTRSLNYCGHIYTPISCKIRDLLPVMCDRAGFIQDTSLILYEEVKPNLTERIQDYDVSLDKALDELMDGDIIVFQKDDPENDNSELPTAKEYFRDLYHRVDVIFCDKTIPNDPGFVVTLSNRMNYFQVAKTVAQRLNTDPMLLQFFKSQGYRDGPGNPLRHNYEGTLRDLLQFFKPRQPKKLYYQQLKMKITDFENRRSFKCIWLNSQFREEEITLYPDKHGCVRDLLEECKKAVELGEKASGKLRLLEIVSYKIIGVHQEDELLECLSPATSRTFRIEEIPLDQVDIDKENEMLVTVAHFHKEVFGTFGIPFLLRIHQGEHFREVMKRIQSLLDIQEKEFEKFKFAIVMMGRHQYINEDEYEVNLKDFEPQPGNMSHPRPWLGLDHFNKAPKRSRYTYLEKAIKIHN
The next experiment deals with HCT-116. Description: Antiproliferative activity against p53 wild type human HCT116 cells expressing USP7 assessed as growth inhibition up to 50 uM. In kind it is functional, cell-based.
The target in experiment [2] is T2, Sentrin-specific protease 1 (Homo sapiens, UniProt Q9P0U3).
T2 sequence (Q9P0U3 whole entry): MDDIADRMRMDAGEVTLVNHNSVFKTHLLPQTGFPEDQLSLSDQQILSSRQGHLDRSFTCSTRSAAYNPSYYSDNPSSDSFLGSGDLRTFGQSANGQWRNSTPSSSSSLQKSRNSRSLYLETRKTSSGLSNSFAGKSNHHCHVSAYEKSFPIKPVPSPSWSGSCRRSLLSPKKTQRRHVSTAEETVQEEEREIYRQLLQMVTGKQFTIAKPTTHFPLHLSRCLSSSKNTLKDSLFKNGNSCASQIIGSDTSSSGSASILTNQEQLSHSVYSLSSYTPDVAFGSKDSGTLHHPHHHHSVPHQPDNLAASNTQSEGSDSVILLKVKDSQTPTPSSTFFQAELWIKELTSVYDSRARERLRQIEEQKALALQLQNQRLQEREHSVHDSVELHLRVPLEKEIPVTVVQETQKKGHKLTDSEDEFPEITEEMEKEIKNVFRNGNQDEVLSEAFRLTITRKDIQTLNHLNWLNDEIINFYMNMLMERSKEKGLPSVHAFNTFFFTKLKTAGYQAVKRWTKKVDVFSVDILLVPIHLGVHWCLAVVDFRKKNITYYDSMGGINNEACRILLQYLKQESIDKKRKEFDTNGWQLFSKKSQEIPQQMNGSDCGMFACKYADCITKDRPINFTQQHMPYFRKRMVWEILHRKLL
Description: Inhibition of core catalytic domain of SENP1 (unknown origin) using SUMO3-EKL as substrate.

Experiment [3] has as its target T3, Ubiquitin carboxyl-terminal hydrolase 21 (Homo sapiens, UniProt Q9UK80).
T3 sequence (Q9UK80 whole entry): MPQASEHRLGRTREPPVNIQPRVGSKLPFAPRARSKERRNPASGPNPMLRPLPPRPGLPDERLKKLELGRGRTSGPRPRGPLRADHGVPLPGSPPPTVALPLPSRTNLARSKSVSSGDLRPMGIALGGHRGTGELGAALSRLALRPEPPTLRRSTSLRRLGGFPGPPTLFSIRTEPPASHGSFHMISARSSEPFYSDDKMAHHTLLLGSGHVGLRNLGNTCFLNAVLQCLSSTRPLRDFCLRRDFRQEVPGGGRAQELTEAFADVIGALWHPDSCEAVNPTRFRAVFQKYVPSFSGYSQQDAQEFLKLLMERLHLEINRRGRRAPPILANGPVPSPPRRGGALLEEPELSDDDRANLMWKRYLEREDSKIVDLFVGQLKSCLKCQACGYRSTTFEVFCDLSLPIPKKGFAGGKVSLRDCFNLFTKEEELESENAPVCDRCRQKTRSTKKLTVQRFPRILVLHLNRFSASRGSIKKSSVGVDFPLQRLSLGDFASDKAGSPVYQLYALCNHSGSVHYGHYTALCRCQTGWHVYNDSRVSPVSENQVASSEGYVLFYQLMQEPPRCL
Description: Inhibition of core catalytic domain of USP21 (unknown origin) using ubiquitin-Rh110 as substrate.

Experiment [4] concerns the target T4, Ubiquitin carboxyl-terminal hydrolase 8 (Homo sapiens, UniProt P40818).
T4 sequence (P40818 whole entry): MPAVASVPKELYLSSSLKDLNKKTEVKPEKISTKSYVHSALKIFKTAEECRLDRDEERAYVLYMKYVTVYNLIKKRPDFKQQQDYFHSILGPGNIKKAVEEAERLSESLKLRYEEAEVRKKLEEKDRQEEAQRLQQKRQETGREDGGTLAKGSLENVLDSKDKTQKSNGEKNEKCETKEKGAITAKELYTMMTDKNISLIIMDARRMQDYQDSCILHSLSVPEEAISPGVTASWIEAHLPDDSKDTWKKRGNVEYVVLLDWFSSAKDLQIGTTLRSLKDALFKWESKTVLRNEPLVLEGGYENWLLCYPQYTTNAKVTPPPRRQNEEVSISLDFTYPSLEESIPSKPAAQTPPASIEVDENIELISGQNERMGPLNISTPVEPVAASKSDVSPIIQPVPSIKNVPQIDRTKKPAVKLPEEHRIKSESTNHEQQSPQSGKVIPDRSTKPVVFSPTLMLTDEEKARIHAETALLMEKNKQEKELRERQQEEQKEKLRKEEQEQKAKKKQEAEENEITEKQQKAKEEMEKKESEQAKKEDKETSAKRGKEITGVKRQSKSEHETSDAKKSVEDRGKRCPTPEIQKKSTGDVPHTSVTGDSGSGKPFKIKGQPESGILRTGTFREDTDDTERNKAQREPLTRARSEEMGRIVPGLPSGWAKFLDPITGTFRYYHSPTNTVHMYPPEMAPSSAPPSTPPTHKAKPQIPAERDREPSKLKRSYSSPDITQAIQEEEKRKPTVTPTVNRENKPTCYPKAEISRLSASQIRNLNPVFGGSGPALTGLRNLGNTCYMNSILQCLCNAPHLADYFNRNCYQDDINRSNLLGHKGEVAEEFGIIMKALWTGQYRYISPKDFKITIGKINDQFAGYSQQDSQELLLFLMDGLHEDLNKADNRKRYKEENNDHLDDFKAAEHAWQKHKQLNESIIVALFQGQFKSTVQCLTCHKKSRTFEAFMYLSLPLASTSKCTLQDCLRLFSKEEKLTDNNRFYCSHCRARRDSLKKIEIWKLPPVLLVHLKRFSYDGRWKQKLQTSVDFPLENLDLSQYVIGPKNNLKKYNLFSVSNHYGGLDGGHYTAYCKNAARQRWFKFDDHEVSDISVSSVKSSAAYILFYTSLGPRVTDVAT
The experiment in a line: Inhibition of core catalytic domain of USP8 (unknown origin) using ubiquitin-Rh110 as substrate.

Experiment [5] deals with T5, Ubiquitin carboxyl-terminal hydrolase 2 (Homo sapiens, UniProt O75604).
T5 sequence (O75604 whole entry): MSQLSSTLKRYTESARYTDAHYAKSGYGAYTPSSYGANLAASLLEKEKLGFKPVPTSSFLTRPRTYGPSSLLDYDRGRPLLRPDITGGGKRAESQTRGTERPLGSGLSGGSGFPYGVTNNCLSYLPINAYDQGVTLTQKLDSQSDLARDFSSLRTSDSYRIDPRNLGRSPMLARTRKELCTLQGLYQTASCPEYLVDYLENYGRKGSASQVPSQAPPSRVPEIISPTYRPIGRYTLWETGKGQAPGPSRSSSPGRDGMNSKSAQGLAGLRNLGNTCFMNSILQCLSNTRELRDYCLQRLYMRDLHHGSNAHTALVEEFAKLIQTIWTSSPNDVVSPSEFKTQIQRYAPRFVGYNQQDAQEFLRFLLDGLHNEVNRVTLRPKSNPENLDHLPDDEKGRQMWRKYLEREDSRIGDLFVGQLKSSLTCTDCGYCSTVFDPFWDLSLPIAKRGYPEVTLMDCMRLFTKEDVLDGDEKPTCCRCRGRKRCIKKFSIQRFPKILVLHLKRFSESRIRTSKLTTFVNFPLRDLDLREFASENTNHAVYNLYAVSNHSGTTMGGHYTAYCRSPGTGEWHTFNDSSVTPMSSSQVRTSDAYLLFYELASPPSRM
Description: Inhibition of core catalytic domain of USP2 (unknown origin) using diubiquitin IQF K4804 as substrate.

For experiment [6], the target named is T1, Ubiquitin carboxyl-terminal hydrolase 7. The experiment in a line: Inhibition of USP7 (unknown origin) using ubiquitin-EKL as substrate at 20 uM.
Target sequence in this assay (Q93009 whole entry, looked up): as the sequence (Q93009 whole entry) above

Calls of active or inactive are those of the source. The calls are words filed in the database; no cut-off is given here.

A word on the IC50: it is the concentration needed to halve the response being measured. Regarding `CCN(CCCNC(=O)c1ccc2nc3c(c(Cl)c2c1)CCCC3)Cc1ccccc1`, in experiment [1], the concentration for half-maximal inhibition (IC50) worked out at 22.6 µM.
As to `N#Cc1nc2c(nc1C#N)-c1ccc(Cl)cc1C2=O`, the half-maximal inhibitory concentration (IC50) in experiment [1] came to 0.42 µM.
For `O=C1NC(=O)/C(=C2\CCNC(=O)c3[nH]ccc32)N1` [SPONGIACIDIN C], the “growth inhibition (GI)” value in the experiment with HCT-116 was “inactive”. The IC50 in experiment [2] is greater than 31.6 µM; in experiment [3], 16.6 µM; in experiment [4], greater than 31.6 µM; in experiment [5] it was greater than 31.6 µM; in experiment [1] it was 3.8 µM.
By inhibition is commonly meant the change of the read-out against control, counted positive when it falls. Lower therefore signals a weak effect. For `NC1=NC(=O)/C(=C2\CCNC(=O)c3[nH]c(Br)cc32)N1`, the inhibition in experiment [6] was 20%.
Take `NC1=N/C(=C2/CCNC(=O)c3[nH]ccc32)C(=O)N1`: the inhibition in experiment [6] turned out to be 20%.
As to `CN(CCCNC(=O)c1ccc2nc3c(c(Cl)c2c1)CCCC3)Cc1ccccc1`, in experiment [1], the half-inhibitory concentration (IC50) worked out at 28.1 µM.
